Measured values from the NIST ThermoML archive (doi:10.1016/j.jct.2009.07.002).

Experiment: isobaric coefficient of expansion
Conditions: Liquid, DSC with Pressure Shift

CCCCCCCCCO [nonan-1-ol]
isobaric coefficient of expansion
Conditions | 278.15 K | 288.15 K | 298.15 K | 308.15 K | 318.15 K | 328.15 K | 338.15 K | 348.15 K
5000 kPa | 0.000819 1/K | 0.000805 1/K | 0.000816 1/K | 0.000829 1/K | 0.000846 1/K | 0.000863 1/K | 0.000886 1/K | 0.000912 1/K
10000 kPa | 0.000795 1/K | 0.000791 1/K | 0.000798 1/K | 0.00081 1/K | 0.000826 1/K | 0.00084 1/K | 0.000858 1/K | 0.000879 1/K
15000 kPa | 0.000786 1/K | 0.000772 1/K | 0.000782 1/K | 0.000792 1/K | 0.000801 1/K | 0.000815 1/K | 0.000831 1/K | 0.000853 1/K
20000 kPa | 0.000759 1/K | 0.000759 1/K | 0.000762 1/K | 0.000773 1/K | 0.000785 1/K | 0.000792 1/K | 0.000807 1/K | 0.000827 1/K
25000 kPa | 0.000741 1/K | 0.000743 1/K | 0.000745 1/K | 0.000753 1/K | 0.000764 1/K | 0.000775 1/K | 0.000789 1/K | 0.000806 1/K
30000 kPa | 0.000733 1/K | 0.000728 1/K | 0.000732 1/K | 0.000736 1/K | 0.000748 1/K | 0.000759 1/K | 0.000773 1/K | 0.000787 1/K
35000 kPa | 0.000719 1/K | 0.000716 1/K | 0.00072 1/K | 0.000723 1/K | 0.000732 1/K | 0.000743 1/K | 0.000754 1/K | 0.000768 1/K
40000 kPa | 0.000704 1/K | 0.000705 1/K | 0.000705 1/K | 0.00071 1/K | 0.000715 1/K | 0.000728 1/K | 0.000736 1/K | 0.000749 1/K
45000 kPa | 0.000693 1/K | 0.000698 1/K | 0.000693 1/K | 0.000695 1/K | 0.000702 1/K | 0.000715 1/K | 0.000722 1/K | 0.000734 1/K
50000 kPa | 0.000685 1/K | 0.000691 1/K | 0.000682 1/K | 0.000684 1/K | 0.00069 1/K | 0.0007 1/K | 0.000708 1/K | 0.000719 1/K
55000 kPa | 0.000672 1/K | 0.000677 1/K | 0.000672 1/K | 0.000673 1/K | 0.000678 1/K | 0.000687 1/K | 0.000695 1/K | 0.000705 1/K
